Test results taken from patent US11040981B2, “Pyrrolotriazine compounds and methods of inhibiting TAM kinases” (Syros Pharmaceuticals, Inc., priority 2017, dated 2021).

Key:
[1] = target: T1, FLT3 (Homo sapiens, UniProt P36888); experiment: TR-FRET kinase activity assay, FLT3; format: biochemical; details: ATP at Km, 60 minutes
T1 sequence (P36888 27-993): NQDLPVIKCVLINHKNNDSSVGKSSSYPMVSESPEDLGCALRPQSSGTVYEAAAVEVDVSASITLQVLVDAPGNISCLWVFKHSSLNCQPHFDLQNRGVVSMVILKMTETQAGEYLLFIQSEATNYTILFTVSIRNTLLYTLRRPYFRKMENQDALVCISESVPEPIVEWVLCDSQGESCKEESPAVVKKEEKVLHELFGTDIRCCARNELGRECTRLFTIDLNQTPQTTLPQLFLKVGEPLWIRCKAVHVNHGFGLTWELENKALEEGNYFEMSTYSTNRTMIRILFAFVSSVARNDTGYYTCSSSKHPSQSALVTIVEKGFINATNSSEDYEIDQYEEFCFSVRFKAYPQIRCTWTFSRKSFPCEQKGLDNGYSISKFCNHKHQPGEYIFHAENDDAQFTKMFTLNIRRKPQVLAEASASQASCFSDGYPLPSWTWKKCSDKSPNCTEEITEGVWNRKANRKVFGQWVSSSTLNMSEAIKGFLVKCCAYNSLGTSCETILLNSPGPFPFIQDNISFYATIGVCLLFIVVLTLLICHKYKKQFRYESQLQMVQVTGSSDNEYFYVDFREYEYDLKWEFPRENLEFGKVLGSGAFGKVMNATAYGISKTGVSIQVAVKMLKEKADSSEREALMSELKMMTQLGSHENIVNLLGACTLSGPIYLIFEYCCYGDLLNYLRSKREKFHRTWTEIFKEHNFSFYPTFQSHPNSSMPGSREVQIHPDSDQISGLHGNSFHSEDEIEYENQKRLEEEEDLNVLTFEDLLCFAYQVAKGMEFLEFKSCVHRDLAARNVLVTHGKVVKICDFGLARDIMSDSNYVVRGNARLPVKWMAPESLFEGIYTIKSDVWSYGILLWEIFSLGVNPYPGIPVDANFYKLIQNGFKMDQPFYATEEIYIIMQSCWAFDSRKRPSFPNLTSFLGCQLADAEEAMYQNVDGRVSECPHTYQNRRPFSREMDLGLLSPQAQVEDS
Outline: (§1)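 Enzyme, fluorescent peptide substrate and compound were mixed, and the reaction was started with ATP at each kinase's Km, in 50 mM HEPES pH 7.5, 10 mM MgCl2, 1 mM EGTA, 0.01% Brij 35, 1 mM DTT at RT. After 60 minutes EDTA quench, Eu-labelled phospho-specific antibody was added for 30 minutes, and IC50 was derived from TR-FRET signal loss.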

[2] = target: T2, TYRO3 (Homo sapiens, UniProt Q06418); experiment: TR-FRET kinase activity assay, TYRO3; format: biochemical; details: ATP at Km, 60 minutes
T2 sequence (Q06418 41-890): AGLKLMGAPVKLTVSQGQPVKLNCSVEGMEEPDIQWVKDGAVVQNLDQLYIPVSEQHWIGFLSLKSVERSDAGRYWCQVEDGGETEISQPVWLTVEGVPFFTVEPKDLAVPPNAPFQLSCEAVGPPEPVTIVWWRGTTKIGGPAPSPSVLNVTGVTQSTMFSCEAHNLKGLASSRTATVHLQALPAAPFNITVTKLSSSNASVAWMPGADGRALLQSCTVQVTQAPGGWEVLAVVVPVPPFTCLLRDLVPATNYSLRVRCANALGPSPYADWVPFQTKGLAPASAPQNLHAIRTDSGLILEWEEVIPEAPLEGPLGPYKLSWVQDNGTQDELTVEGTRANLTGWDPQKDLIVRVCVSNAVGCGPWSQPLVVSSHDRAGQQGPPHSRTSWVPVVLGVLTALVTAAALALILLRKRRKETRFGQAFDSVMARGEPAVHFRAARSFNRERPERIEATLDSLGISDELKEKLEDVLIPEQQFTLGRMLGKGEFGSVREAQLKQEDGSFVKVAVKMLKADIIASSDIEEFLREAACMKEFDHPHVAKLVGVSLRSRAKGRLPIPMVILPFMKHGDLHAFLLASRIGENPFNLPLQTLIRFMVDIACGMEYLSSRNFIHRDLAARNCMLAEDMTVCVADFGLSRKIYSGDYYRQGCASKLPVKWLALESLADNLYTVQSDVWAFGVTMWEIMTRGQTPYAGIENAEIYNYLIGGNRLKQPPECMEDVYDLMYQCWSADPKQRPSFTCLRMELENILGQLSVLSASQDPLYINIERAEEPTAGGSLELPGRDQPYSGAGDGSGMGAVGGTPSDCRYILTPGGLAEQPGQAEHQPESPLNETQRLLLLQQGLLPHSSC
Outline: as §1

SMILES	IC50 [1] [nM]	IC50 [2] [nM]
COC[C@H](C)Nc1ncc2c(-c3cnn(C4COC4)c3)cc([C@H]3CC[C@@H](O)CC3)n2n1 [Compound 564]	≤ 100	≤ 100
CC(Cc1ccc(F)cc1)Nc1ncc2c(-c3cnn(C4COC4)c3)cc(C3CCC(O)CC3)n2n1 (racemic) [Compound 535]	≤ 100	≤ 100
COCC(C)Nc1ncc2c(-c3ccc(CN4CCCC4)cc3)cc(C3CCC(O)CC3)n2n1 (stereo not drawn) [Compound 142]	100 to 1000	≤ 100
